Assay results from patent US10654845B2, “2-(het)aryl-substituted fused bicyclic heterocycle derivatives as pesticides” (BAYER CROPSCIENCE AKTIENGESELLSCHAFT, priority 2015, dated 2020).

Columns and labels:
Phaedon cochleariae = Phaedon cochleariae spray test; format: in vivo; conditions: 500 g/ha, after 7 days, beetle larvae killed; for pest or weed control at 500 g/ha: Phaedon cochleariae, 168 h, read-out: efficacy in %
Method in brief: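 Compound dissolved in acetone/dimethylformamide and diluted with water containing 1000 ppm alkylaryl polyglycol ether emulsifier to test concentrations, applied as a spray. Efficacy (% beetle larvae killed) assessed after 7 days.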

Myzus persicae [1] = test: Myzus persicae spray test (Chinese cabbage leaf discs); format: in vivo; conditions: 500 g/ha, after 6 days, aphids killed; for pest or weed control at 500 g/ha: Myzus persicae, foliar, 144 h, read-out: efficacy in %
Procedure: (§1) Myzus persicae Spray Test
Solvent: 78 parts by weight of acetone
(§2) • 1.5 parts by weight of dimethylformamide Emulsifier: alkylaryl polyglycol ether
(§3) To produce a suitable preparation of active compound, 1 part by weight of active compound is dissolved using the stated parts by weight of solvent and made up with water containing an emulsifier concentration of 1000 ppm until the desired concentration is attained. To produce further test concentrations, the preparation is diluted with emulsifier-containing water.
Discs of Chinese cabbage leaves (Brassica pekinensis) infested by all stages of the green peach aphid (Myzus persicae) are sprayed with an active compound preparation of the desired concentration.
After 6 days, the efficacy in % is determined. 100% means that all the aphids have been killed; 0% means that no aphids have been killed.

[2] = log P by HPLC on reversed-phase column (C18), EEC Directive 79/831 Annex V.A8; conditions: for chromatographic logP: reversed-phase HPLC column (C18)
Description: Called log P (HCOOH) in the table.
Called log P (neutral) in the table.

Meloidogyne incognita = Meloidogyne incognita test; format: in vivo; conditions: 20 ppm, after 14 days, formation of galls
Procedure: Meloidogyne incognita-Test
Solvent: 125.0 parts by weight of acetone
To produce a suitable preparation of active compound, 1 part by weight of active compound is mixed with the stated amount of solvent and the concentrate is diluted with water to the desired concentration.
Vessels are filled with sand, active compound solution, an egg/larvae suspension of the southern root-knot nematode (Meloidogyne incognita) and lettuce seeds. The lettuce seeds germinate and the plants develop. The galls develop on the roots.
After 14 days, the nematicidal efficacy in % is determined by the formation of galls. 100% means that no galls were found; 0% means that the number of galls on the treated plants corresponds to the untreated control.

Myzus persicae [3] = test: Myzus persicae spray test (bell pepper plants); format: in vivo; conditions: 100 ppm, after 6 days
Procedure: as §1
Solvent: 7 parts by weight of dimethylformamide
Emulsifier: alkylaryl polyglycol ether
To produce a suitable preparation of active compound, 1 part by weight of active compound is dissolved using the stated parts by weight of solvent and made up with water containing an emulsifier concentration of 1000 ppm until the desired concentration is attained. To produce further test concentrations, the preparation is diluted with emulsifier-containing water. If the addition of ammonium salts or/and penetrants is required, these are each added in a concentration of 1000 ppm to the formulation solution.
Bell pepper plants (Capsicum annuum) severely infested with the green peach aphid (Myzus persicae) are treated by spraying with the active compound preparation in the desired concentration.
After 6 days, the kill in % is determined. 100% means that all of the aphids have been killed; 0% means that none of the aphids have been killed.

Spodoptera frugiperda = Spodoptera frugiperda spray test; format: in vivo; conditions: 500 g/ha, after 7 days, caterpillars killed
Procedure: Spodoptera frugiperda-Spray Test Solvent: 78.0 parts by weight of acetone • • 1.5 parts by weight of dimethylformamide Emulsifier: alkylaryl polyglycol ether […] To produce further test concentrations, the preparation is diluted with emulsifier-containing water. Leaf disks of maize (Zea mays) are sprayed with an active compound preparation of the desired concentration and, after drying, populated with caterpillars of the armyworm (Spodoptera frugiperda).

Musca domestica = Musca domestica test; format: in vivo; conditions: 100 ppm, after 2 days, adult houseflies
Procedure: (§4) Solvent: dimethyl sulphoxide
(§5) To produce a suitable preparation of active compound, 10 mg of active compound are mixed with 0.5 ml of dimethyl sulphoxide, and the concentrate is diluted with water to the desired concentration.
Vessels containing a sponge treated with sugar solution and the active compound preparation of the desired concentration are populated with 10 adult houseflies (Musca domestica).
After 2 days, the kill in % is determined. 100% means that all of the flies have been killed; 0% means that none of the flies have been killed.

Lucilia cuprina = Lucilia cuprina test; format: in vivo; conditions: 100 ppm, after 2 days, L1 larvae
Procedure: as §4, §5
About 20 L1 larvae of the Australian sheep blowfly (Lucilia cuprina) are transferred into a test vessel containing minced horsemeat and the active compound preparation of the desired concentration.
After 2 days, the kill in % is determined. 100% means that all the larvae have been killed; 0% means that no larvae have been killed.

Tetranychus urticae = Tetranychus urticae spray test, OP-resistant; format: in vivo; conditions: 500 g/ha, after 6 days, spider mites killed
Procedure: Tetranychus urticae-Spray Test, OP-Resistant
Solvent: 78.0 parts by weight of acetone
as §2, §3
Discs of bean leaves (Phaseolus vulgaris) infested with all stages of the greenhouse red spider mite (Tetranychus urticae) are sprayed with an active compound preparation of the desired concentration.
After 6 days, the efficacy in % is determined. 100% means that all the spider mites have been killed; 0% means that no spider mites have been killed.

Ctenocephalides felis = Ctenocephalides felis oral test; format: in vivo; conditions: 100 ppm, after 2 days
Procedure: Ctenocephalides felis-Oral Test
as §4
To produce a suitable preparation of active compound, 10 mg of active compound are mixed with 0.5 ml of dimethyl sulphoxide. Dilution with citrated cattle blood gives the desired concentration.
About 20 unfed adult cat fleas (Ctenocephalides felis) are placed into a chamber which is closed at the top and bottom with gauze. A metal cylinder whose bottom end is closed with parafilm is placed onto the chamber. The cylinder contains the blood/active compound preparation, which can be imbibed by the fleas through the parafilm membrane.
After 2 days, the kill in % is determined. 100% means that all of the fleas have been killed; 0% means that none of the fleas have been killed.

[4] = test system: Aedes aegypti strain MONHEIM; test: whole plant or invertebrate; format: in vivo; conditions: read-out: mortality in %
Procedure: Aedes Test (AEDSAE Surface Treatment)
(§6) Solvent: acetone+2000 ppm rapeseed oil methyl ester (RME)
To produce an appropriate active compound formulation, the active compound is dissolved in the solvent (2 mg/ml). The active compound formulation is pipetted onto a glazed tile and, after it has dried off, adult mosquitoes of the species Aedes aegypti strain MONHEIM are placed onto the treated tile. The exposure time is 30 minutes.
(§7) 24 hours after contact with the treated surface, mortality in % is determined. 100% means that all mosquitoes have been killed; 0% means that none of the mosquitoes have been killed.

[5] = test system: Anopheles gambiae strain RSPH (homozygot kdr); test: Anopheles test (ANPHGB surface treatment); format: in vivo; conditions: 24 hours after contact
Procedure: Anopheles Test (ANPHGB Surface Treatment)
as §6
To produce an appropriate active compound formulation, the active compound is dissolved in the solvent (2 mg/ml). The active compound formulation is pipetted onto a glazed tile and, after it has dried off, adult mosquitoes of the species Anopheles gambiae strain RSPH (homozygot kdr) are placed onto the treated tile. The exposure time is 30 minutes.
as §7

[6] = test system: Anopheles funestus strain FUMOZ-R; test: whole plant or invertebrate; format: in vivo; conditions: read-out: mortality in %
Procedure: Anopheles Test (ANPHFU Surface Treatment)
as §6
To produce an appropriate active compound formulation, the active compound is dissolved in the solvent (2 mg/ml). The active compound formulation is pipetted onto a glazed tile and, after it has dried off, adult mosquitoes of the species Anopheles funestus strain FUMOZ-R (Hunt et al., Med Vet Entomol. 2005 September; 19(3):271-5) are placed onto the treated tile. The exposure time is 30 minutes.
as §7

Boophilus microplus = Boophilus microplus injection test; format: in vivo; conditions: 20 μg/animal, assessed after 7 days
Procedure: Boophilus microplus-Injection Test
as §4
To produce a suitable preparation of active compound, 10 mg of active compound are mixed with 0.5 ml of solvent and the concentrate is diluted with solvent to the desired concentration.
1 μl of the active compound solution is injected into the abdomen of 5 engorged adult female cattle ticks (Boophilus microplus). The animals are transferred into dishes and kept in a climate-controlled room.
Efficacy is assessed after 7 days by laying of fertile eggs. Eggs which are not visibly fertile are stored in a climate-controlled cabinet until the larvae hatch after about 42 days. An efficacy of 100% means that none of the ticks has laid any fertile eggs; 0% means that all the eggs are fertile.

[7] = pH 2.7, logP-acidic, LC-MS acidic range, pH 2.7 (HCOOH), C18, 55° C.
[8] = pH 7.8, log P (neutral), preparation examples, neutral range, pH 7.8
[9] = pH 7.8, logP-neutral, LC-MS neutral range, pH 7.8, C18, 55° C.
[10] = LC-MS acidic range, pH 2.7 (HCOOH), C18, 55° C.
[11] = LC-MS neutral range, pH 7.8, C18, 55° C.

| Structure (SMILES) | efficacy in % (Phaedon cochleariae) | efficacy in % (Myzus persicae [1]) | logP-acidic ([2]; pH 2.7) | logP-neutral ([2]; pH 7.8) | nematicidal efficacy in % (Meloidogyne incognita) | pest or weed control at 500 g/ha (Phaedon cochleariae) | efficacy in % (Spodoptera frugiperda) | chromatographic logP [2, 7] | chromatographic logP [2, 8] | chromatographic logP [2, 9] | kill in % (Lucilia cuprina) | also measured |
| --- | --- | --- | --- | --- | --- | --- | --- | --- | --- | --- | --- | --- |
| CCS(=O)(=O)c1ccc(NC(=O)C(C)CSC)nc1-c1nc2cc(C(F)(F)F)ncc2n1C (centres unmarked) [Example 65] | 100% | 100% | 2.94 | 2.78 | 100% | – | – | – | – | – | – | – |
| CCS(=O)(=O)c1ccc(/C=C/C2CC2)nc1-c1nc2cc(C(F)(F)F)ncc2n1C [Example 40, 2-{6-[(E)-2-Cyclopropylvinyl]-3-(ethylsulphonyl)pyridin-2-yl}-3-methyl-6-(trifluoromethyl)-3H-imidazo[4,5-c]pyridine] | – | – | – | – | – | 100% | 100% | 3.33 | 3.24 | 3.24 | – | kill in % (Myzus persicae [3]): 100% |
| CCOc1ccc(S(=O)(=O)CC)c(-c2nc3cc(C(F)(F)F)ncc3n2C)n1 [Example 10, 2-[6-Ethoxy-3-(ethylsulphonyl)pyridin-2-yl]-3-methyl-6-(trifluoromethyl)-3H-imidazo[4,5-c]pyridine] | – | – | – | – | – | 100% | 83% | 2.94 | 2.86 | 2.86 | 100% | kill in % (Musca domestica): 90%; pest or weed control at 500 g/ha (Myzus persicae [1]): 90% |
| CCS(=O)(=O)c1ccc(SC(C)C)nc1-c1nc2cc(C(F)(F)F)ncc2n1C [Example 29] | – | – | – | – | 90% | – | – | – | – | – | – | logP-acidic [2, 10]: 3.62; logP-neutral [2, 11]: 3.53 |
| CCS(=O)(=O)c1ccc(NC(C)=O)nc1-c1nc2cc(C(F)(F)C(F)(F)F)ncc2n1C [Example 62] | 100% | – | 2.54 | 2.47 | 90% | – | 100% | – | – | – | – | efficacy in % (Tetranychus urticae): 90% |
| CCS(=O)(=O)c1ccc(NC(=O)C(F)(F)C(F)F)nc1-c1nc2cc(C(F)(F)F)ncc2n1C [Example 8] | 100% | 90% | 2.80 | 2.12 | – | – | – | – | – | – | 100% | kill in % (Musca domestica): 100%; kill in % (Ctenocephalides felis): 100% |
| CCNc1ccc(S(=O)(=O)CC)c(-c2nc3cc(C(F)(F)F)ncc3n2C)n1 [Example 56] | 100% | 100% | – | – | 100% | – | – | – | – | – | – | efficacy in % (Tetranychus urticae): 90%; logP-acidic [2, 10]: 2.37; logP-neutral [2, 11]: 2.35 |
| CCS(=O)(=O)c1ccc(N)nc1-c1nc2cc(C(F)(F)F)ncc2n1C [Example 14, 5-(Ethylsulphonyl)-6-[3-methyl-6-(trifluoromethyl)-3H-imidazo[4,5-c]pyridin-2-yl]pyridine-2-amine] | – | – | – | – | 90% | 100% | – | 1.63 | 1.62 | 1.62 | 100% | mortality at 20 mg/m2 [4]: 80 to 100%; mortality at 100 mg/m2 [4]: 80 to 100%; pest or weed control at 500 g/ha (Myzus persicae [1]): 90%; mortality at 20 mg/m2 ([5]; 20 mg/m^2, 30 minutes exposure): 80 to 100%; mortality at 100 mg/m2 ([5]; 100 mg/m^2, 30 minutes exposure): 80 to 100%; kill in % (Ctenocephalides felis): 100%; mortality at 20 mg/m2 [6]: 80 to 100%; mortality at 100 mg/m2 [6]: 80 to 100%; efficacy (laying of fertile eggs) (Boophilus microplus): 80% |
| CCS(=O)(=O)c1ccc(OC(C)C)nc1-c1nc2cc(C(F)(F)F)ncc2n1C [Example 18] | – | – | 3.31 | 3.22 | 90% | – | – | – | – | – | – | – |
